Tests used:
[1] = test system: normal human umbilical cord vein vascular endothelial cells and normal human skin fibroblasts; test: Measurement of angiogenesis acceleration action (in vitro), hollow organ formation, Example 1; assay type: cell-based
Protocol: An angiogenesis kit (manufactured by Kurabo; constituted from normal human umbilical cord vein vascular endothelial cells and normal human skin fibroblasts) was cultured for 3 hours, and then the culture medium (the medium for angiogenesis use attached to the angiogenesis kit was used as the culture medium and cultured at 37° C. under a moist environment of 5% carbon dioxide-95% air, and a carbon dioxide incubator BNA-121D was used as the incubator) was changed and an agent to be tested was added to each well (0.5 ml/well). The medium exchange was carried out also on the 3rd, 6th and 8th days after commencement of the culturing and the fresh agent to be tested was added. The kind and concentration of the agent to be tested were untreated, solvent (DMSO) 0.1%, Compound 1 10^−9, 10^−8 and 10^−7 mol/l, VEGF-A 0.1, 1 and 10 ng/ml and HGF 0.1, 1 and 10 ng/ml, and the culturing was carried out by using 3 wells for each concentration. Fixation was carried out 10 days after the commencement of culturing, and staining of hollow organ with anti-CD31 antibody was carried out by using a hollow organ staining kit (manufactured by Kurabo). As the evaluation, Chalkley Grid (a grid lens, manufactured by Kurabo) was mounted on the eyepiece of a microscope, and the hollow organ formation was evaluated by counting intersections of the randomly arrange points of Chalkley Grid with the formed hollow organ (by referring to the evaluation method of J. Pathol., 177, 275-283 (1995)). The counting was carried out at 12 positions per well, and the total was calculated.
As the agent to be tested, Compound 1 ((E)-[5-[2-[1-phenyl-1-(3-pyridyl)methylideneaminoxy]ethyl]-7,8-dihydronaphthalen-1-yloxy]acetic acid) was dissolved in dimethyl sulfoxide (DMSO) to prepare 10^−4, 10^−5 and 10^−6 mol/l solutions which were then used by diluting 1/1000 time with the culture medium.
As the VEGF-A (vascular endothelial growth factor-A), the 2 μg/ml solution of VEGF contained in the angiogenesis control reagent kit of Kurabo was diluted with the culture medium and used. […]

HGF = test: Endogenous repair factor protein producing action (in vitro), HGF by ELISA, Example 2; assay type: cell-based, human; conditions: 10^-7 mol/l
Protocol: (§1) An angiogenesis kit (manufactured by Kurabo; constituted from normal human umbilical cord vein vascular endothelial cells and normal human skin fibroblasts) was cultured for 3 hours, and then the culture medium (the medium for angiogenesis use attached to the angiogenesis kit was used as the culture medium and cultured at 37° C. under a moist environment of 5% carbon dioxide-95% air, and a carbon dioxide incubator BNA-121D was used as the incubator) was changed and an agent to be tested was added to each well (0.5 ml/well). The agent to be tested were solvent (DMSO) 0.1% and Compound 1 10^−7 mol/l, and the culturing was carried out by using 3 wells for each. Culture supernatants were collected before commencement of the culturing and 1, 2, 6, 24, 48 and 72 hours after the commencement. HGF and VEGF protein concentrations in the culture supernatants were measured by using an ELISA kit (R % D system-Funakoshi).
(§2) As the agent to be tested, Compound 1 ((E)-[5-[2-[1-phenyl-1-(3-pyridyl)methylideneaminoxy]ethyl]-7,8-dihydronaphthalen-1-yloxy]acetic acid) was dissolved in dimethyl sulfoxide (DMSO) to prepare 10^−4 mol/l solution which was then used by diluting 1/1000 time with the culture medium.
(§3) Results of the solvent control wells were compared with those of the wells treated with the agent to be tested by Dunnett's test (two-sided test). The significance level was set to 5%. […]

VEGF = test: Endogenous repair factor protein producing action (in vitro), VEGF by ELISA, Example 2; assay type: cell-based, human; conditions: 10^-7 mol/l
Protocol: as §1, §2, §3

[2] = 72 hours of culturing, vs solvent control
[3] = after 72 hours of culturing, average of 3 wells ± SD

For O=C(O)COc1cccc2c1CCC=C2CCO/N=C(\c1ccccc1)c1cccnc1 [Compound 1, (E)-[5-[2-[1-phenyl-1-(3-pyridyl)methylideneaminoxy]ethyl]-7,8-dihydronaphthalen-1-yloxy]acetic acid], the “hollow organ formation (Chalkley Grid count), in words” value ([1]; 10^-8 and 10^-7 mol/l, 10 days of culturing, vs untreated wells, Dunnett's test, FIG. 1) was “accelerated hollow organ formation statistically significantly”, the “angiogenesis accelerating effect, strength compared with positive control agents” value ([1]; co-culture system of human vascular endothelial cells and human fibroblasts) was “strength equivalent to the positive control agents VEGF-A and HGF” and the “production of HGF protein, in words” value (HGF; [2]) was “accelerated production of HGF protein and VEGF protein statistically significantly”. For the same compound, the “HGF protein concentration in culture supernatant” value (HGF; [3]) was 518 ± 15 pg/mL, the “production of VEGF protein, in words” value (VEGF; [2]) was “accelerated production of HGF protein and VEGF protein statistically significantly” and the “VEGF protein concentration in culture supernatant” value (VEGF; [3]) was 3034 ± 30 pg/mL.
